According to ChEMBL document CHEMBL4270607, “Identification of crizotinib derivatives as potent SHIP2 inhibitors for the treatment of Alzheimer's disease” (Eur J Med Chem, 2018):
The source made the active and inactive calls. No cut-off for these calls is given here.

What was measured:
[1] = Drug uptake in blood of Sprague-Dawley rat at 5 mg/kg, iv measured at 2 hrs by LC-MS/MS analysis; assay type: ADME, organism-based; conditions: read-out: Drug uptake
[2] = MRT (0 to infinity) in Sprague-Dawley rat at 2 mg/kg, iv administered as single dose by LC-MS/MS analysis; assay type: ADME, organism-based; conditions: in vivo
[3] = AUC (0 to t) in Sprague-Dawley rat at 10 mg/kg, po administered as single dose by LC-MS/MS analysis; assay type: ADME, organism-based; conditions: in vivo
[4] = target: T1, Phosphatidylinositol 3,4,5-trisphosphate 5-phosphatase 2 (Mus musculus) (UniProt Q6P549); assay: Inhibition of SHIP2 in H2O2-stimulated mouse HT22 cells assessed as decrease in PI(3,4)P2 production at 10 uM incubated for 30 mins followed by H2O2 stimulation for 5 mins in presence of PTEN inhibitor VO-Ohpic trihydrate by ELISA
T1 sequence (whole entry): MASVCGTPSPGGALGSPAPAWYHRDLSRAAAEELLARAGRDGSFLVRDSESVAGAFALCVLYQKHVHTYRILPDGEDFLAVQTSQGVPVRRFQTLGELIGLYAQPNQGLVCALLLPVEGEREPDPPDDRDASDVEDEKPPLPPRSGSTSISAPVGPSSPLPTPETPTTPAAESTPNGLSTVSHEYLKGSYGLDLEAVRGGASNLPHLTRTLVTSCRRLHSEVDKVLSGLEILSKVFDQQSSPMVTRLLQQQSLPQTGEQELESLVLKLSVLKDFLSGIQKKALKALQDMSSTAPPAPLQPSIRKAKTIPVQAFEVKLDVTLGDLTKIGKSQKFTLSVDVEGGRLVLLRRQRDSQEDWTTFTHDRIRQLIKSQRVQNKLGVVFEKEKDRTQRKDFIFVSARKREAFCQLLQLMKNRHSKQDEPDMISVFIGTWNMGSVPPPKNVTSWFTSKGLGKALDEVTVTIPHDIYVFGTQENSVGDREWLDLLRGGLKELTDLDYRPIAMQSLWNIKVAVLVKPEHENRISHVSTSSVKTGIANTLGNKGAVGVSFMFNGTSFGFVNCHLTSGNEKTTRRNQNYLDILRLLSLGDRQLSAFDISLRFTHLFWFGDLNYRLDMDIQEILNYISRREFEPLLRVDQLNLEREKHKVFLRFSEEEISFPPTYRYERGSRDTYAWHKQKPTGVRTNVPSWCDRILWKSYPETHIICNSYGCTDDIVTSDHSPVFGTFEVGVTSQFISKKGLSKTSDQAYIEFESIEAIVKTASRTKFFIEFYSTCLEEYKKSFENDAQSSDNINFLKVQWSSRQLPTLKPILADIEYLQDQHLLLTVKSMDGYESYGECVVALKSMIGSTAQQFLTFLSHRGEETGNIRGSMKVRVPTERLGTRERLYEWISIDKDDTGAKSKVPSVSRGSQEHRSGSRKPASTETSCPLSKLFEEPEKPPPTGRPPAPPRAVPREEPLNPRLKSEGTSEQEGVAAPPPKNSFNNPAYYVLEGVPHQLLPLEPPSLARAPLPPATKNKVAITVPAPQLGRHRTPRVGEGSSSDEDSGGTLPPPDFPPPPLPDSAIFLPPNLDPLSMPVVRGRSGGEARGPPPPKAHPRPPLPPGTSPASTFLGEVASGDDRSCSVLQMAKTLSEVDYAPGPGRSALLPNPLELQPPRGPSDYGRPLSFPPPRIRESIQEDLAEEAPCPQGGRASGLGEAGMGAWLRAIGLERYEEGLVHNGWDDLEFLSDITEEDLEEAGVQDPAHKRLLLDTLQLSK

[5] = AUC (0 to infinity) in Sprague-Dawley rat at 2 mg/kg, iv administered as single dose by LC-MS/MS analysis; assay type: ADME, organism-based; parameters: dose 2 mg/kg, time infinity, route intravenous; conditions: in vivo
[6] = Oral bioavailability in Sprague-Dawley rat at 2 mg/kg, iv administered as single dose by LC-MS/MS analysis; assay type: ADME, organism-based; conditions: in vivo
[7] = Drug uptake in brain of Sprague-Dawley rat at 5 mg/kg, iv measured at 2 hrs by LC-MS/MS analysis; assay type: ADME, organism-based; conditions: read-out: Drug uptake
[8] = Drug uptake in brain of Sprague-Dawley rat at 5 mg/kg, iv measured at 5 hrs by LC-MS/MS analysis; assay type: ADME, organism-based; conditions: read-out: Drug uptake
[9] = Apparent volume of distribution in Sprague-Dawley rat at 2 mg/kg, iv administered as single dose by LC-MS/MS analysis; assay type: ADME, organism-based; conditions: in vivo, read-out: Vz
[10] = MRT (0 to t) in Sprague-Dawley rat at 10 mg/kg, po administered as single dose by LC-MS/MS analysis; assay type: ADME, organism-based; conditions: in vivo
[11] = MRT (0 to t) in Sprague-Dawley rat at 2 mg/kg, iv administered as single dose by LC-MS/MS analysis; assay type: ADME, organism-based; conditions: in vivo

SMILES: C[C@@H](Oc1cncc(-c2cnc(N)nc2)c1)c1c(Cl)ccc(F)c1Cl
- concentration at 2 h [1]: 559 ng/mL
- MRT inf [2]: 1.37 h
- AUC(0-t) [3]: 2830 ng·h/mL
- inhibition [4]: Active
- AUC(0-inf) [5]: 1720 ng·h/mL
- bioavailability [6]: 33.3%
- concentration at 2 h [7]: 1440 ng/mL
- concentration at 5 h [8]: 194 ng/mL
- Vd [9]: 2.3 L/kg
- MRT last [10]: 3.06 h
- MRT last [11]: 1.28 h
